These are literature values, as cited in patent US10507204B2, “Pharmaceutical composition comprising amorphous lenalidomide” (SYNTHON B.V., priority 2014, dated 2019).

With `Nc1cccc2c1CN(C1CCC(=O)NC1=O)C2=O` (racemic) [Lenalidomide, (RS)-3-(4-Amino-1-oxo 1,3-dihydro-2H-isoindol-2-yl)piperidine-2,6-dione], the solubility in water entry is recorded as “slightly soluble”.
